According to patent publication US20130059787A1, “METHODS OF USING HUMAN PROTEIN KINASE C DELTA VIII AS A BIOMARKER” (UNITED STATES DEPARTMENT OF VETERAN AFFAIRS, priority 2010, published 2013):

How the values were obtained:
[1] = system: 5′ splice site II on PKCδ exon 10; test: Mutated pSPL3_PKCδ** minigene (SC35 cis-element mutated) in NT2 cells, RT-PCR; type: cell-based, human; settings: RA about 10 μM, about 24 h
From the text: FIG. 11 is a series of images depicting mutation of putative SC35 binding site inhibits RA-mediated utilization of 5′ splice site II utilization on the minigene. (a) schematic of the position and sequence of the putative SC35 cis-element on the pSPL3_PKCδ splicing minigene. Arrows indicate the position of primers used in PCR analysis. Putative SC35 binding site ggccaaag (SEQ ID No: 17) was mutated to tagcccaga (SEQ ID No: 18) on the minigene. (b) resulting mutated minigene pSPL3_PKCδ** was transfected into NT2 cells. In separate wells, the mutated minigene pSPL3_PKCδ** was co-transfected with either about 2 μg of SC35 or SF2/ASF. The original pSPL3_PKCδ splicing minigene was also transfected in a separate well. After overnight transfection, NT2 cells were treated with or without about 10 μM RA for about 24 h. Total RNA was extracted and RT-PCR performed using primers for PKCδ exon 10 sense and SA antisense as shown. About 5% of the products were separated by PAGE and silver stained for visualization. SSI: usage of 5′ splice site I; SSII: usage of 5′ splice site II. Graph represents percent exon inclusion calculated as SS II/(SS II+SSI)×100 and is representative of three experiments performed separately. […]

[2] = system: 5′ splice site II of PKCδ exon 10; test: pSPL3_PKCδ splicing minigene in NT2 cells, RT-PCR; type: cell-based, human; settings: RA about 10 μM, 24 h
Description: (a) schematic represents PKCδ pre-mRNA exon 10 and flanking introns cloned into pSPL3 splicing vector between the SD and SA exons. The resulting minigene is referred to as pSPL3_PKCδ minigene. Arrows indicate position of primers used in RT-PCR analysis. (b) pSPL3_PKCδ minigene and pSPL3 empty vector were transfected overnight, and then the cells were treated with or without about 10 μM RA for about 24 h. Total RNA was extracted and RT-PCR performed using primers as described above. Expected products are SD-SA: constitutive splicing; SSI: usage of 5′ splice site I; SSII: usage of 5′ splice site II. (c) About 2 μg of SC35 or SF2/ASF was co-transfected along with the pSPL3_PKCδ splicing minigene. […] Graphs represent percent exon inclusion calculated as SS II/(SS II+SSI)×100 in the samples and are representative of four experiments performed separately. […]
Splicing minigenes are advantageous to identify cis-elements on the pre-mRNA involved in regulated alternative splicing. […] Since the human PKCδ splice variants used alternative 5′ splice sites as determined previously, exon 10 of PKCδ pre-mRNA along with its flanking 3′ and 5′ intronic sequences was cloned (as described under “Experimental Procedures”) in the multiple cloning site (MCS) between the splice donor (SD) and splice acceptor (SA) exons of pSPL3, a vector developed to study splicing events (schematic shown in FIG. 10a). […]

SMILES: CC1=C(/C=C/C(C)=C/C=C/C(C)=C/C(=O)O)C(C)(C)CCC1 [RA, all-trans-retinoic acid]
- selection of 5′ splice site II on PKCδ exon 10 in pSPL3_PKCδ**-mutated minigene [1]: did not promote
- utilization of 5′ splice site II of PKCδ exon 10 in pSPL3_PKCδ minigene [2]: increased utilization
